Patent publication US20230346827A1 (priority 2020, published 2023)

Test system: PBMC and HUVEC + TCR ligands
Test: BioMAP SAg system
Assay type: cell-based, human
Conditions: annotated relative to vehicle controls
Excerpt: Cell types and stimuli used in each system are as follows: 3C system [HUVEC + (IL-1β, TNFα and IFNy)], 4H system [HUVEC + (IL-4 and histamine)], LPS system [PBMC and HUVEC + LPS (TLR4 ligand)], SAg system [PBMC and HUVEC + TCR ligands], BT system [CD19+ B cells and PBMC + (α-IgM and TCR ligands)], BF4T system [bronchial epithelial cells and HDFn + (TNFα and IL-4)], BE3C system [bronchial epithelial cells + (IL-1β, TNFα and IFNy)], CASM3C system [coronary artery smooth muscle cells + (IL-1 β, TNFα and IFNy)], HDF3CGF system [HDFn + (IL-1β, TNFα, IFNy, EGF, bFGF and PDGF-BB)], KF3CT system [keratinocytes and HDFn + (IL-1β, TNFα, IFNy and TGFβ)], MyoF system [differentiated lung myofibroblasts + (TNFα and TGFβ)] and Mphg system [HUVEC and M1 macrophages + Zymosan (TLR2 ligand)].
Systems are derived from either single cell types or co-culture systems. Adherent cell types are cultured in 96 or 384-well plates until confluence, followed by the addition of PBMC (SAg and LPS systems). […] Soluble factors from supernatants are quantified using either HTRF® detection, bead-based multiplex immunoassay or capture ELISA. Overt adverse effects of test agents on cell proliferation and viability (cytotoxicity) are detected by sulforhodamine B (SRB) staining, for adherent cells, and alamarBlue® reduction for cells in suspension. […]

sodium salt of dextran sulfate [LMW-DS]
Increased biomarker activity: IL-8
